Results from US20240226108A9, “TREATMENT OF BRAIN INJURIES” (ASTON UNIVERSITY, priority 2021, published 2024).

What was measured:
[1] = test system: rat brain tissue slices; assay: calcein AM cell viability staining of brain slices subjected to hypoxia; type: cell-based; details: calcein AM MFI, Maraviroc 50 μM, trifluoperazine 100 μM, 1 hour pre-treatment, 30 minutes hypoxia; for Significant? (Dunn's multiple comparisons test vs. vehicle control): Alpha 0.05; for Mean rank 2 (mean rank of treatment group, Kruskal-Wallis): vehicle control mean rank 11.73
Description: Brain slices were pre-treated for 1 hour with final concentrations of Maraviroc (50 μM), trifluoperazine (100 μM), and both drugs trifluoperazine and maraviroc against vehicle control for 1 hour, before being subjected to 30 minutes of hypoxia.
Damage to the brain tissue was determined by staining the tissue with acetoxymethyl calcein (calcein AM), available from Abcam Ltd, Cambridge, UK and Thermo Fisher, USA. The assay is a quantitative assay used to determine cell viability.

[2] = target: CCR5 (Mus musculus, UniProt P51682); details: compared with CCR5 knockdown; cited from earlier work
Chain of CCR5 (P51682 whole entry): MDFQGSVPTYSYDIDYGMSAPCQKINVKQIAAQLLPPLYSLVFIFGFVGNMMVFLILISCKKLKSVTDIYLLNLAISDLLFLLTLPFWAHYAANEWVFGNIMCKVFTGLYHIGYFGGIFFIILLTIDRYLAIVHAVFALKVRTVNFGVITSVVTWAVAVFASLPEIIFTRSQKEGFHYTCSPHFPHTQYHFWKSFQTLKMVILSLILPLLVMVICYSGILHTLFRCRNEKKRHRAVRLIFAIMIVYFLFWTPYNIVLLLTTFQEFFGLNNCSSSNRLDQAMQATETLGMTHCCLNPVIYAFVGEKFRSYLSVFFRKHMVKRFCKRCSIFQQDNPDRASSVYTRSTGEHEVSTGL

Compound	Significant? (Dunn's multiple comparisons test vs. vehicle control) [1]	Mean rank diff. (Dunn's multiple comparisons test, vehicle control vs. treatment) [1]	Summary (significance stars, Dunn's multiple comparisons test vs. vehicle control) [1]	Z (Dunn's multiple comparisons test vs. vehicle control) [1]	Mean rank 2 (mean rank of treatment group, Kruskal-Wallis) [1]	motor recovery post-stroke and cognitive decline post traumatic brain injury [2]
CN1CCN(CCCN2c3ccccc3Sc3ccc(C(F)(F)F)cc32)CC1 [TFP, trifluoperazine]	Yes	−25.87	*** ((***) p≤001)	4.056	37.60	
Maraviroc	Yes	−22.07	** ((**) p≤0.01)	3.460	33.80	produced similar effects on motor recovery post-stroke and cognitive decline post traumatic brain injury
